Assay: mn = molality of the nth substance listed, in mol/kg
Settings: 298 K, Ring tensiometer

CCCCCCCCCCCC[N+](C)(C)C.[Cl-] [N,N,N-trimethyl-1-dodecanaminium chloride] + O
Settings	surface tension liquid-gas [mN/m]
m1 = 3e-05	56.38
m1 = 5e-05	51.17
m1 = 7e-05	47.18
m1 = 0.0001	41.7
m1 = 0.00015	35.66
m1 = 0.0002	31.91
m1 = 0.0003	28.13
m1 = 0.0005	25.41
m1 = 0.0007	25.28
m1 = 0.001	25.68
m1 = 0.0013	25.4
m1 = 0.0016	25.52

CCCCCCCCCCCCOS(=O)(=O)[O-].[Na+] [sodium dodecyl sulfate] + O
Settings	surface tension liquid-gas [mN/m]
m1 = 0.00013	66.84
m1 = 0.00031	60.83
m1 = 0.00102	52.39
m1 = 0.00303	45.05
m1 = 0.00501	40.55
m1 = 0.007	38.58
m1 = 0.008	37.41
m1 = 0.009	37.73
m1 = 0.01	37.99
m1 = 0.012	37.76
